In patent US20050245571A1, “Amine derivative” (priority 2001, published 2005):

Columns and labels:
human SSTR2 = target: T1, human SSTR2 (Homo sapiens, UniProt P30874); test: Binding inhibition of 125I-somatostatin-14, SSTR2 membrane fraction; settings: 125I-somatostatin-14 binding, CHO membrane fraction, 25° C. 60 minutes, Hill plots
T1 construct: expressed in transfected cells; host or cells: CHO (dhfr-) cells, strain SSTR2-HS5-9, plasmid pAC01 (pAKKO-111 vector)
Method: (4) Cloning of Human Somatostatin Receptor Protein Subtype 2 (SSTR2) DNA
pAKKO-111 mentioned under the above (2) was used as the expression vector in CHO (Chinese Hamster Ovary) cells. 5 μg of the plasmid having human SSTR2 cDNA fragment obtained under the above (4) was digested with the restriction enzyme Sal I and subjected to electrophoresis on 1% agarose gel to recover the 1.1 kb DNA fragment encoding human SSTR2. Next, 1 μg of the above-mentioned expression vector pAKKO-111 (5.5 kb) was digested with Sal I to prepare the cloning site for insertion of human SSTR2 DNA fragment. Said expression vector fragment and the 1.1 kb DNA fragment were ligated with T4 DNA ligase. The reaction mixture was introduced into E. coli JM109 by the calcium chloride method to obtain the expression plasmid pAC01 in which human SSTR2 DNA fragment was inserted in regular direction against the promoter from the transformants. This transformant is expressed as Escherichia coli JM109/pAC-01.
1×10^6 CHO (dhfr^−) cells were cultured for 24 hours in HAM F12 medium containing 10% bovine fetal serum on a laboratory dish of 8 cm in diameter. To the cells was transfected 10 μg of the human SSTR2 cDNA expression plasmid, pA-C01, obtained under the above (5) by the calcium phosphate method (Cell Phect Transfection Kit: Pharmacia). The medium was switched to DMEM medium containing 10% dialyzed bovine fetal serum 24 hours after the transfection to select the colony-forming cells (i.e. DHFR^+ cells) in this medium. Further, the selected cells were cloned from a single cell by the limiting dilution method and a cell strain which highly expresses human SSTR2, SSTR2-HS5-9, was selected.
The receptor binding inhibition rate (%) of the subject compound was calculated using each of the membrane fractions prepared in Experimental Examples 1 and 2.
The membrane fraction was diluted with a buffer solution for assay to adjust the concentration to 3 μg/ml. The diluate was placed in tubes each in quantity of 173 μl. To this were simultaneously added 2 μl of a solution of a subject compound in DMSO and 25 μl of a […] radioisotope-labeled somatostatin-14 (^125I-somatostatin-14: Amersham). For measurement of the maximum binding, a reaction mixture added with 2 μl of DMSO and 25 μl of a […] ^125I-somatostatin was prepared. For measurement of non-specific binding, a reaction mixture added with 2 μl of a 100 μM somatostatin solution in DMSO and 25 μl of a 200 pM ^125I-somatostatin solution was prepared at the same time. The mixtures were allowed to react at 25° C. for 60 minutes. Then, the reaction mixture was filtered by aspiration using a Whatman glass filter (GF-B) treated with polyethylenine. After filtration, the radioactivity of ^125I-somatostatin-14 remaining on the filter paper was measured by a γ-counter. The binding inhibition rate (%) of each subject compound was calculated by the following formula: (TB-SB)/(TB-NSB)×100 • SB: radioactivity when a compound was added • TB: maximum binding radioactivity • NSB: non-specific binding radioactivity
The binding inhibition rates were measured by changing the concentrations of the subject compound, and the 50% inhibiting concentration of the subject compound (IC50 value) was calculated by the Hill plots. The results are shown in [Table 1].

human SSTR3 = target: T2, human SSTR3 (Homo sapiens, UniProt P32745); test: Binding inhibition of 125I-somatostatin-14, SSTR3 membrane fraction; settings: 125I-somatostatin-14 binding, CHO membrane fraction, 25° C. 60 minutes, Hill plots
T2 construct: expressed in transfected cells; host or cells: CHO (dhfr-) cells, strain SSTR3-15-19, plasmid pA1-11-SSTR3 (pAKKO-111 vector)

human SSTR5 = target: T3, human SSTR5 (Homo sapiens, UniProt P35346); test: Binding inhibition of 125I-somatostatin-14, SSTR5 membrane fraction; settings: 125I-somatostatin-14 binding, CHO membrane fraction, 25° C. 60 minutes, Hill plots
T3 construct: expressed in transfected cells; host or cells: CHO (dhfr-) cells, strain SSTR5-32-4, plasmid pA1-11-SSTR5 (pAKKO-111 vector)

glucagon secretion = test: Glucagon Secretion Inhibitory Activity Test (Rat); format: in vivo; settings: SD rats male fasted, 3 mg/kg oral, insulin 2 U/kg s.c. 120 minutes later, plasma glucagon 30 minutes after insulin
Method: Glucagon Secretion Inhibitory Activity Test (Rat)
A 0.5% methylcellulose suspension containing the subject compound (3 mg/kg body weight) (compound administration group) or a 0.5% methylcellulose suspension (compound non-administration group) was orally administered to SD rats (male, 7 weeks of age) after fasting overnight, and 120 minutes later, insulin (2 U/kg body weight, Novo Nordisk) was subcutaneously administered. After 30 minutes from the insulin administration, the blood was,drawn from the vein of eyegrounds of the rats using capillary, and blood plasma was separated by centrifugation. The concentration of glucagon in the obtained blood plasma was measured by radioimmunoassay using a Daiichi glucagon kit (Daiichi Isotope). As a non-treated group, the concentration of glucagon in the blood plasma of rat of the compound non-administration group free of insulin administration was measured in the same manner as above. […]

T3 sequence (P35346 whole entry): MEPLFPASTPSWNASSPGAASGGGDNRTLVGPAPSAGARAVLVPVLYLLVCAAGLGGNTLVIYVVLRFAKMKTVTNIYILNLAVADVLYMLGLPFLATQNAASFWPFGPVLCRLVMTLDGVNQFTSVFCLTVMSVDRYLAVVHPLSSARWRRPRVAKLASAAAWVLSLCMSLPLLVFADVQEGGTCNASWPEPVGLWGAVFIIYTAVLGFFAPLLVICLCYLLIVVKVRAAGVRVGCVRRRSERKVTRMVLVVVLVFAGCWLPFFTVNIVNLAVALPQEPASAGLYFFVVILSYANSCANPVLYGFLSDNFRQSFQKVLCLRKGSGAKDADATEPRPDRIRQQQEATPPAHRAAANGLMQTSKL
T2 sequence (P32745 whole entry): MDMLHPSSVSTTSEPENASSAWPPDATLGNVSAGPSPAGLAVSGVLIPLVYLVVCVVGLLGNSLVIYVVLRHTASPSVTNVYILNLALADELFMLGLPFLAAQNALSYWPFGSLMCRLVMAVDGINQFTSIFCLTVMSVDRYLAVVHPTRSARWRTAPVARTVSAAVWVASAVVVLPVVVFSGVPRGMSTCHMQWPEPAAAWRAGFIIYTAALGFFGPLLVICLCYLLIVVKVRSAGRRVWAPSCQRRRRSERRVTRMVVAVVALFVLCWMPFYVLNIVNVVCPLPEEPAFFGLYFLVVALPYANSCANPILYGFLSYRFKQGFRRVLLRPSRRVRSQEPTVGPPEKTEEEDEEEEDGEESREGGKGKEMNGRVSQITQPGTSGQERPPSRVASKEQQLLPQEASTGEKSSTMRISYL
T1 sequence (P30874 whole entry): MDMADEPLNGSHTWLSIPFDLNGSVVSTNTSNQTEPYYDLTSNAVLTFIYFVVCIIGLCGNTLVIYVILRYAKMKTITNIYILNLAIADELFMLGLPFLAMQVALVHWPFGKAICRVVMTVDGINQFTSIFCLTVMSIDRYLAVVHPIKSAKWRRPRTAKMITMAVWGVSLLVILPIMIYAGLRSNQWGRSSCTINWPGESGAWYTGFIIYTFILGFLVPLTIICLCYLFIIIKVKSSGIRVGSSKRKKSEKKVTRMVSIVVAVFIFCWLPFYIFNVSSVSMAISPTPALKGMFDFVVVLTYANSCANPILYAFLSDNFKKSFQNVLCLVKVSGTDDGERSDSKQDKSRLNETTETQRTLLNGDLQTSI

With `CC(c1c[nH]c2ccccc12)C(NC(=O)N1CCC(Oc2ccc(O)cc2)CC1)C(=O)N1C[C@@H](CN(C)C)Cc2cc(Cl)ccc21` (single isomer, unassigned; (-)) [Example 141] the IC50 (human SSTR2) was 0.05 nM, the IC50 (human SSTR3) was 3 nM and the IC50 (human SSTR5) was 10 nM.

`C[C@@H](c1c[nH]c2ccccc12)[C@@H](NC(=O)C1CCN(C(=O)c2cc3ccccc3n2C)CC1)C(=O)N1C[C@@H](CN(C)C)Cc2cc(Cl)ccc21` [Example 6, N-[(1R,2S)-1-[((3R)-6-chloro-3-[(dimethylamino)methyl]-3,4-dihydro-1(2H)-quinolinyl)carbonyl]-2-(1H-indol-3-yl)propyl]-1-[(1-methyl-1H-indol-2-yl)carbonyl]-4-piperidinecarboxamide] showed an IC50 (human SSTR2) of 0.2 nM, an IC50 (human SSTR3) of 30 nM and an IC50 (human SSTR5) of 60 nM. The “glucagon secretion (% of control)” value (glucagon secretion) was 15.6 % of control.

With `C[C@@H](c1c[nH]c2ccccc12)[C@@H](NC(=O)N1CCC(Oc2ccccc2)CC1)C(=O)N1C[C@@H](CN(C)C)Cc2cc(Cl)ccc21` [Example 42, N-[(1R,2S)-1-[((3R)-6-chloro-3-[(dimethylamino)methyl]-3,4-dihydro-1(2H)-quinolinyl)carbonyl]-2-(1H-indol-3-yl)propyl]-4-phenoxy-1-piperidinecarboxamide] the IC50 (human SSTR2) was 0.1 nM, the IC50 (human SSTR3) was 6 nM and the IC50 (human SSTR5) was 40 nM. For the same compound, the “glucagon secretion (% of control)” value (glucagon secretion) was 3.0 % of control.

`C[C@@H](c1c[nH]c2ccccc12)[C@@H](NC(=O)N1CCC(Oc2ccc(F)cc2)CC1)C(=O)N1C[C@@H](CN(C)C)Cc2cc(Cl)ccc21` [Example 153, N-[(1R,2S)-1-[[(3R)-6-chloro-3-[(dimethylamino)methyl]-3,4-dihydro-1(2H)-quinolinyl]carbonyl]-2-(1H-indol-3-yl)propyl]-4-(4-fluorophenoxy)-1-piperidinecarboxamide] showed an IC50 (human SSTR2) of 0.1 nM, an IC50 (human SSTR3) of 10 nM and an IC50 (human SSTR5) of 40 nM.

`C[C@@H](c1c[nH]c2ccccc12)[C@@H](NC(=O)N1CCN(C(=O)c2ccccc2)CC1)C(=O)N1C[C@@H](CN(C)C)Cc2cc(Cl)ccc21` [Example 157, 4-benzoyl-N-[(1R,2S)-1-[[(3R)-6-chloro-3-[(dimethylamino)methyl]-3,4-dihydro-1(2H)-quinolinyl]carbonyl]-2-(1H-indol-3-yl)propyl]-1-piperazinecarboxamide] gave an IC50 (human SSTR2) of 0.05 nM, an IC50 (human SSTR3) of 1 nM and an IC50 (human SSTR5) of 5 nM.
